Reference: the NIST ThermoML archive (doi:10.1021/acs.jced.9b00411)
± gives the expanded uncertainty stated by the source.

Settings: Crystal; DSC

Triple point temperature: 437.78 ± 1.2 K
Structure (SMILES): Nc1ccc(S(N)(=O)=O)cc1 [4-aminobenzenesulfonamide]
